Data as given in patent US12173088B2, “Anti-microbial peptides” (priority 2018, dated 2024).
In brackets after ≈: the same amount, converted by molar mass. Read-outs that look alike come from different tables or passages of the source. Peptide text beside a SMILES is read from it.

Columns and labels:
[1] = system: S. aureus USA300; assay: microbe, parasite or virus in culture; assay type: cell-based, Staphylococcus aureus
Procedure, shortened: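 Broth microdilution: log-phase cultures in tryptic soy broth diluted to OD600 0.001, exposed to two-fold diluted peptides at 37° C overnight, growth read at 630 nm. Medium effects on S. aureus USA300 tested with up to 200 mM NaCl, 2 mM CaCl2, 5-10% human serum, mouse plasma, fluids or tissue homogenate supernatants.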

[2] = system: P. aeruginosa PAO1; assay type: cell-based, Pseudomonas aeruginosa
Procedure, shortened: (§1)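 Broth microdilution in tryptic soy broth: log-phase cultures (OD600 ≈0.5) diluted to OD600 0.001, given two-fold peptide dilutions, incubated overnight at 37° C. Growth read at 630 nm.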

[3] = system: E. coli ATCC 25922; assay type: cell-based, Escherichia coli
Procedure, shortened: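 Peptides, serially diluted two-fold, were incubated overnight at 37 °C with E. coli ATCC 25922 from log-phase cultures adjusted to OD600 0.001. Turbidity at 630 nm served as the read-out in this broth microdilution format.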

[4] = Hemolytic assay; assay type: cell-based, human; details: human, human red blood cells, 2% (v/v)
Procedure, shortened: (§2)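 HL50 marks the peptide level lysing half of a 2% (v/v) suspension of washed human erythrocytes after 1 h at 37 °C. Released hemoglobin measured at 545 nm, scaled between PBS (0%) and Triton X-100 (2% or 1%; 100%). Selectivity index computed as HL50 over MIC.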

[5] = system: Klebsiella pneumoniae clinical strains; assay: microbe, parasite or virus in culture; details: Klebsiella pneumoniae
Procedure: The antibacterial activity of peptides was evaluated using a standard broth microdilution protocol with minor modifications (Mishra, et al. (2017) Acta Biomater., 49:316-328). In brief, logarithmic phase bacterial cultures (i.e., optical density at 600 nm≈0.5) were diluted to 0.001 OD and aliquoted 90 μL per well into a 96-well polystyrene microplate. Added 10 μL peptides per well with various concentrations, plates were incubated at 37° C., overnight. Post incubation the plates are read at 630 nm using a ChroMate® Microplate Reader (GMI). […] To study the influence of medium conditions on the antimicrobial activity of peptides against S. aureus USA300 at different pHs (6.8, 7.2, and 8.0), 150 mM sodium chloride (NaCl), 5-10% of human serum, mouse plasma, and peritoneal fluid were included into the assays.

[6] = system: K. pneumoniae ATCC 13883; assay type: cell-based, Klebsiella pneumoniae; details: ATCC 13883
Procedure, shortened: as §1

[7] = system: human red blood cells (hRBCs); assay: Hemolytic assay; assay type: cell-based
Procedure, shortened: as §2

[8] = Table 4, quantitated based on weight

SMILES | MIC SA (S. aureus USA300) ([1]; USA300) [µM] | MIC PA (P. aeruginosa PAO1) ([2]; PAO1) [µM] | MIC EC (E. coli ATCC 25922) ([3]; ATCC 25922) [µM] | HC50 at 1 h [4] [µM] | further results
CC(C)C[C@H](NC(=O)[C@H](CC(C)C)NC(=O)[C@H](CCCCN)NC(=O)[C@H](CC(C)C)NC(=O)[C@H](CCCCN)NC(=O)[C@H](CC(C)C)NC(=O)[C@H](CO)NC(=O)[C@H](CC(C)C)NC(=O)[C@H](CC(C)C)NC(=O)[C@H](CC(C)C)NC(=O)[C@H](CO)NC(=O)[C@H](CC(C)C)NC(=O)CN)C(N)=O [DFT563, GLSLLLSLKLKLL] (H-GLSLLLSLKLKLL-NH2; N-terminus and C-terminus assumed) | 6.2 (≈ 8.74 µg/mL) | >25 | >25 | > 300 | 
CC(C)C[C@H](NC(=O)[C@H](CC(C)C)NC(=O)[C@H](CCCCN)NC(=O)[C@H](CC(C)C)NC(=O)CNC(=O)[C@H](CC(C)C)NC(=O)[C@H](CCCCN)NC(=O)[C@H](CC(C)C)NC(=O)[C@H](CC(C)C)NC(=O)[C@H](CC(C)C)NC(=O)[C@H](CO)NC(=O)[C@H](CC(C)C)NC(=O)CN)C(N)=O [DFT562, GLSLLLKLGLKLL] (H-GLSLLLKLGLKLL-NH2; N-terminus and C-terminus assumed) |  | >25 | >25 | < 25 | 
CC(C)C[C@H](NC(=O)[C@H](CC(C)C)NC(=O)[C@H](CCCCN)NC(=O)[C@H](CC(C)C)NC(=O)CNC(=O)[C@H](CC(C)C)NC(=O)[C@H](CCCCN)NC(=O)[C@H](CC(C)C)NC(=O)[C@H](CC(C)C)NC(=O)[C@H](CC(C)C)NC(=O)[C@H](CCCCN)NC(=O)[C@H](CC(C)C)NC(=O)[C@@H](N)CCCCN)C(N)=O [DFT565, KLKLLLKLGLKLL] (H-KLKLLLKLGLKLL-NH2; N-terminus and C-terminus assumed) | 0.8 (≈ 1.19 µg/mL) | >25 | >25 | 50 | MIC ([1]; USA300): 3.1 µM (≈ 4.63 µg/mL); MIC ([1]; USA300, pH 6.8): 3.1 to 6.2 µM; MIC ([1]; USA300, pH 7.4): 3.1 µM (≈ 4.63 µg/mL); MIC ([1]; USA300, pH 8): 3.1 µM (≈ 4.63 µg/mL)
CC(C)C[C@H](NC(=O)[C@H](CC(C)C)NC(=O)[C@H](CCCCN)NC(=O)[C@H](CC(C)C)NC(=O)CNC(=O)[C@H](CC(C)C)NC(=O)[C@H](CO)NC(=O)[C@H](CC(C)C)NC(=O)[C@H](CC(C)C)NC(=O)[C@H](CO)NC(=O)[C@H](CC(C)C)NC(=O)[C@H](CC(C)C)NC(=O)CN)C(N)=O [DFT531, GLLSLLSLGLKLL] (H-GLLSLLSLGLKLL-NH2; N-terminus and C-terminus assumed) |  |  |  |  | MIC SA (S. aureus USA300) [1, 8]: 0.8 µM (≈ 1.07 µg/mL); MIC PA (P. aeruginosa PAO1) [2, 8]: >25 µM; MIC EC (E. coli ATCC 25922) [3, 8]: >25 µM; HC50 at 1 h ([4]; Table 4, quantitated based on weight, read-out: HL50, peptide concentration for 50% hemolysis): 7 µM
CN(C)c1cc(NC(=O)CNC(C)(C)C)c(O)c2c1C[C@H]1C[C@H]3[C@H](N(C)C)C(O)=C(C(N)=O)C(=O)[C@@]3(O)C(O)=C1C2=O [Tigecycline, reference compound] |  |  |  |  | MIC ([5]; strain KP-231-18): 4 µM (≈ 2.34 µg/mL); MIC ([5]; strain KP-232-18): 8 µM (≈ 4.69 µg/mL); MIC ([5]; strain KP-245-18): 4 µM (≈ 2.34 µg/mL); MIC ([5]; strain KP-249-18): 2 µM (≈ 1.17 µg/mL); MIC ([5]; strain KP-253-18): 2 µM (≈ 1.17 µg/mL); MIC ([5]; strain KP-256-18): 4 µM (≈ 2.34 µg/mL); MIC ([5]; strain KP-257-18): 8 µM (≈ 4.69 µg/mL); MIC ([5]; strain KP-262-18): 4 µM (≈ 2.34 µg/mL); MIC ([5]; strain KP-270-18): 4 µM (≈ 2.34 µg/mL); MIC ([5]; strain KP-B42-15): < 2 µM; MIC ([5]; strain KP-B53-15): 2 µM (≈ 1.17 µg/mL); MIC ([5]; strain KP-B73-15): 2 µM (≈ 1.17 µg/mL); MIC ([5]; strain KP-B77-15): < 2 µM; MIC ([5]; strain KP-B1725-18): 2 µM (≈ 1.17 µg/mL)
CC(C)C[C@H](NC(=O)[C@H](CC(C)C)NC(=O)[C@H](CCCCN)NC(=O)[C@H](CC(C)C)NC(=O)CNC(=O)[C@H](CC(C)C)NC(=O)[C@H](CO)NC(=O)[C@H](CC(C)C)NC(=O)[C@H](CC(C)C)NC(=O)[C@H](CC(C)C)NC(=O)[C@H](CO)NC(=O)[C@H](CC(C)C)NC(=O)[C@@H](N)CCCCN)C(N)=O [DFT560, KLSLLLSLGLKLL] (H-KLSLLLSLGLKLL-NH2; N-terminus and C-terminus assumed) |  | >25 | >25 | 25 | MIC SA (S. aureus USA300) [1, 8]: 1.6 µM (≈ 2.26 µg/mL)
CC(C)C[C@H](NC(=O)[C@H](CC(C)C)NC(=O)[C@H](CCCCN)NC(=O)[C@H](CC(C)C)NC(=O)CNC(=O)[C@H](CC(C)C)NC(=O)[C@H](CCCCN)NC(=O)[C@H](CC(C)C)NC(=O)[C@H](CC(C)C)NC(=O)[C@H](CC(C)C)NC(=O)[C@H](CCCCN)NC(=O)[C@H](CC(C)C)NC(=O)CN)C(N)=O [DFT564, GLKLLLKLGLKLL] (H-GLKLLLKLGLKLL-NH2; N-terminus and C-terminus assumed) |  | >25 | >25 | < 25 | MIC ([1]; USA300): 3.1 µM (≈ 4.4 µg/mL); MIC ([1]; USA300, pH 6.8): 1.6 µM (≈ 2.27 µg/mL); MIC ([1]; USA300, pH 7.4): 3.1 µM (≈ 4.4 µg/mL); MIC ([1]; USA300, pH 8): 1.6 µM (≈ 2.27 µg/mL)
CC(C)C[C@H](NC(=O)[C@H](C)NC(=O)[C@H](CCCCN)NC(=O)CNC(=O)[C@H](CC(C)C)NC(=O)[C@H](C)NC(=O)[C@H](CCCCN)NC(=O)[C@H](CC(C)C)NC(=O)[C@H](C)NC(=O)[C@H](CO)NC(=O)[C@H](CC(C)C)NC(=O)[C@H](CC(C)C)NC(=O)CN)C(N)=O [DFT529, GLLSALKALGKAL] (H-GLLSALKALGKAL-NH2; N-terminus assumed) |  |  |  |  | MIC S. aureus USA 300 ([1]; USA300): 75 µM (≈ 94 µg/mL); MIC against S. aureus ([1]; USA300): 12.5 to 25 µM; MIC P. aeruginosa PAO1 ([2]; PAO1): >25 µM; MIC E. coli ATCC 25922 ([3]; ATCC 25922): 25 µM (≈ 31.3 µg/mL); MIC K. pneumoniae [6]: >25 µM; HL50 [7]: >50 µM

Now from value to compound, other results behind:

MIC SA (S. aureus USA300) ([1]; USA300) [µM] | MIC PA (P. aeruginosa PAO1) ([2]; PAO1) [µM] | MIC EC (E. coli ATCC 25922) ([3]; ATCC 25922) [µM] | SMILES | HC50 at 1 h [4] [µM] | further results
3.1 (≈ 4.15 µg/mL) | >25 | >25 | CC(C)C[C@H](NC(=O)[C@H](CC(C)C)NC(=O)[C@H](CCCCN)NC(=O)CNC(=O)[C@H](CC(C)C)NC(=O)[C@H](CC(C)C)NC(=O)[C@H](CC(C)C)NC(=O)[C@H](CC(C)C)NC(=O)[C@H](CO)NC(=O)[C@H](CO)NC(=O)[C@H](CC(C)C)NC(=O)[C@H](CC(C)C)NC(=O)CN)C(N)=O [DFT505, GLLSSLLLLGKLL] (H-GLLSSLLLLGKLL-NH2; N-terminus and C-terminus assumed) | 20 | 
1.6 (≈ 2.14 µg/mL) | >25 | >25 | CC(C)C[C@H](NC(=O)[C@H](CC(C)C)NC(=O)[C@H](CCCCN)NC(=O)CNC(=O)[C@H](CC(C)C)NC(=O)[C@H](CC(C)C)NC(=O)[C@H](CO)NC(=O)[C@H](CC(C)C)NC(=O)[C@H](CC(C)C)NC(=O)[C@H](CC(C)C)NC(=O)[C@H](CO)NC(=O)[C@H](CC(C)C)NC(=O)CN)C(N)=O [DFT502, GLSLLLSLLGKLL] (H-GLSLLLSLLGKLL-NH2; N-terminus and C-terminus assumed) | 3.1 | 
6.2 (≈ 8.3 µg/mL) | >25 | >25 | CC(C)C[C@H](NC(=O)[C@H](CCCCN)NC(=O)CNC(=O)[C@H](CC(C)C)NC(=O)[C@H](CC(C)C)NC(=O)[C@H](CC(C)C)NC(=O)[C@H](CO)NC(=O)[C@H](CC(C)C)NC(=O)[C@H](CC(C)C)NC(=O)[C@H](CC(C)C)NC(=O)[C@H](CO)NC(=O)[C@H](CC(C)C)NC(=O)CN)C(N)=O [DFT504, GLSLLLSLLLGKL] (H-GLSLLLSLLLGKL-NH2; N-terminus and C-terminus assumed) | 8 | 
1.6 (≈ 2.14 µg/mL) | >25 | >25 | CC(C)C[C@H](NC(=O)[C@H](CC(C)C)NC(=O)[C@H](CCCCN)NC(=O)[C@H](CC(C)C)NC(=O)CNC(=O)[C@H](CC(C)C)NC(=O)[C@H](CO)NC(=O)[C@H](CC(C)C)NC(=O)[C@H](CC(C)C)NC(=O)[C@H](CO)NC(=O)CNC(=O)[C@H](CC(C)C)NC(=O)[C@@H](N)CC(C)C)C(N)=O [DFT532, LLGSLLSLGLKLL] (H-LLGSLLSLGLKLL-NH2; N-terminus and C-terminus assumed) | 13 | 
3.1 (≈ 4.15 µg/mL) | >25 | >25 | CC(C)C[C@H](NC(=O)[C@H](CC(C)C)NC(=O)CNC(=O)[C@H](CC(C)C)NC(=O)[C@H](CC(C)C)NC(=O)[C@H](CO)NC(=O)[C@H](CC(C)C)NC(=O)[C@H](CC(C)C)NC(=O)[C@H](CO)NC(=O)[C@H](CC(C)C)NC(=O)[C@H](CC(C)C)NC(=O)[C@H](CCCCN)NC(=O)CN)C(N)=O [DFT527, GKLLSLLSLLGLL] (H-GKLLSLLSLLGLL-NH2; N-terminus and C-terminus assumed) | 20 | 
